Results reported in patent US5980913A, “Peptides having immunomodulatory activity” (Biochem Pharma, Inc., priority 1994, dated 1999).
Where a SMILES comes first, the peptide text is derived from it.

Key:
[1] = test system: blood cell subsets (cell surface antigens); assay: In vivo/ex vivo immunophenotyping in the blood, mice treated 4 consecutive days, blood taken on day 5; design: species or system C57BL/6 mice
Protocol: (§1) C57BL.backslash.6 mice are treated with 0, 50, 100, 200, and 300 mg/kg of drug (in saline) for 4 consecutive days. Blood is taken by cardiac puncture on day 5, and the lymphocytes are isolated from spleen in the following manner:
1. Immunophenotyping (blood and spleen)
Cell immunophenotyping is performed on blood and spleen. The following cell surface antigens are analyzed:
CD4 (T helper/inducer, binds class II-restricted T cells);
CD8 (cytotoxic T cells, CTL adhesion);
MAC-1 (monocyte/macrophage);
NK (natural killer cells);
CD45 (all leukocytes, protein tyrosine phosphatase).

[2] = Toxicity in vivo; settings: animals treated with 50, 100, 200, and 300 mg/kg
Excerpt: peptide #1 (SEQ. ID NO:1) appears to be non-toxic.

[3] = test system: T cells; assay: Activation of T cells by mitogenic proliferation (ConA, PHA); assay type: cell-based, C57BL/6 mice; settings: concentration not given; 0 not defined
Excerpt: c) Activation of T or B cells by Mitogenic Proliferation
A mitogenic lectin (mitogen) is a glycoprotein which binds and cross-links specific cells surface carbohydrate determinants, and will polyclonally stimulate lymphoid cells. Lymphocyte activation by either antigens or mitogens results in intracellular changes and the subsequent development into a lymphoblast. Mitogenic stimulation of lymphocytes in vitro is believed to mimic the series of events which occur in vivo following their stimulation by specific antigens. PHA and ConA; PWM and LPS mitogens can be used as a measurement of T cell and B cell activity, respectively. Briefly, the spleen mononuclear leukocytes from C57BL/6 mice are incubated in the presence or absence of mitogens with or without candidate drugs. After 72 hours or 5 days, ^3 H-thymidine incorporation is recorded as an indication of cell proliferation.
Lymphocytes were isolated from mice spleen or human blood in accordance to methods well known in the art. 100 μl of cell suspension of 2×10^6 cells/ml was added per well (2x10^5 cells/well) and incubated in the presence of lectin at the following concentrations:
PHA=0.01% to 0.001% final concentration
Cells were incubated for 3 days with PHA or ConA, or 5 days with PWM or LPS. 1 μCi of tritiated thymidine was added to each well for the last 6 hours (or 0.5 μCi for 18 hrs). The cells were harvested in a cell Harvester (Tortech®) and counted in a Beta counter.

[4] = test system: T and B cells in spleen; assay: In vivo/ex vivo mitogenic proliferation of T and B cells (spleen); design: species or system C57BL/6 mice; settings: FIGS. 1A-1D
Protocol: as §1
The spleen is aseptically removed and mashed by pressing against a steel strainer with a rubber plunger. The cell suspension is separated from the clumps by letting them settle at the bottom of the tube. The cell suspension is then separated on a Lymphocyte M layer and the interface is recovered and resuspended in media.
2. Mitogenic proliferation of T and B cells (spleen)

NCCCC[C@H](N)C(=O)N[C@@H](CC(N)=O)C(=O)N1CCC[C@H]1C(=O)N[C@@H](Cc1ccc(O)cc1)C(=O)O [PEPTIDE #1, H-Lys-Asn-Pro-Tyr-OH] (H-KNPY-OH)
B cell subset, relative percentage ([1]; 50 mg/kg): 23.57
CD4+ CD8+ cell subset, relative percentage ([1]; 50 mg/kg): 3.65
CD4+ CD8- cell subset, relative percentage ([1]; 50 mg/kg): 27.15
CD4+ CD11+ cell subset, relative percentage ([1]; 50 mg/kg): 0.53
CD4+ CD11- cell subset, relative percentage ([1]; 50 mg/kg): 34.10
CD4+ CD45+ cell subset, relative percentage ([1]; 50 mg/kg): 26.95
CD4+ CD45- cell subset, relative percentage ([1]; 50 mg/kg): 3.80
CD4- CD8+ cell subset, relative percentage ([1]; 50 mg/kg): 11.20
CD4- CD8- cell subset, relative percentage ([1]; 50 mg/kg): 58.05
CD4- CD11+ cell subset, relative percentage ([1]; 50 mg/kg): 7.67
CD4- CD11- cell subset, relative percentage ([1]; 50 mg/kg): 57/73
CD4- CD45+ cell subset, relative percentage ([1]; 50 mg/kg): 65.30
CD4- CD45- cell subset, relative percentage ([1]; 50 mg/kg): 3.90
CD8+ CD45+ cell subset, relative percentage ([1]; 50 mg/kg): 13.70
CD8+ CD45- cell subset, relative percentage ([1]; 50 mg/kg): 0.55
CD8- CD45+ cell subset, relative percentage ([1]; 50 mg/kg): 76.15
CD8- CD45- cell subset, relative percentage ([1]; 50 mg/kg): 9.60
NK+ CD3+ cell subset, relative percentage ([1]; 50 mg/kg): 7.83
NK+ CD3- cell subset, relative percentage ([1]; 50 mg/kg): 10.47
NK- CD3+ cell subset, relative percentage ([1]; 50 mg/kg): 41.23
NK- CD3- cell subset, relative percentage ([1]; 50 mg/kg): 40.53
Non B cell subset, relative percentage ([1]; 50 mg/kg): 76.40
B cell subset, relative percentage ([1]; 100 mg/kg): 19.23
CD4+ CD8+ cell subset, relative percentage ([1]; 100 mg/kg): 27.20
CD4+ CD8- cell subset, relative percentage ([1]; 100 mg/kg): 28.55
CD4+ CD11+ cell subset, relative percentage ([1]; 100 mg/kg): 0.23
CD4+ CD11- cell subset, relative percentage ([1]; 100 mg/kg): 41.67
CD4+ CD45+ cell subset, relative percentage ([1]; 100 mg/kg): 46.75
CD4+ CD45- cell subset, relative percentage ([1]; 100 mg/kg): 8.90
CD4- CD8+ cell subset, relative percentage ([1]; 100 mg/kg): 11.50
CD4- CD8- cell subset, relative percentage ([1]; 100 mg/kg): 32.85
CD4- CD11+ cell subset, relative percentage ([1]; 100 mg/kg): 3.00
CD4- CD11- cell subset, relative percentage ([1]; 100 mg/kg): 55.13
CD4- CD45+ cell subset, relative percentage ([1]; 100 mg/kg): 37.30
CD4- CD45- cell subset, relative percentage ([1]; 100 mg/kg): 7.00
CD8+ CD45+ cell subset, relative percentage ([1]; 100 mg/kg): 31.95
CD8+ CD45- cell subset, relative percentage ([1]; 100 mg/kg): 6.20
CD8- CD45+ cell subset, relative percentage ([1]; 100 mg/kg): 47.55
CD8- CD45- cell subset, relative percentage ([1]; 100 mg/kg): 14.35
NK+ CD3+ cell subset, relative percentage ([1]; 100 mg/kg): 2.80
NK+ CD3- cell subset, relative percentage ([1]; 100 mg/kg): 6.50
NK- CD3+ cell subset, relative percentage ([1]; 100 mg/kg): 37.57
NK- CD3- cell subset, relative percentage ([1]; 100 mg/kg): 53.13
Non B cell subset, relative percentage ([1]; 100 mg/kg): 80.77
B cell subset, relative percentage ([1]; 200 mg/kg): 20.10
CD4+ CD8+ cell subset, relative percentage ([1]; 200 mg/kg): 16.11
CD4+ CD8- cell subset, relative percentage ([1]; 200 mg/kg): 24.11
CD4+ CD11+ cell subset, relative percentage ([1]; 200 mg/kg): 0.50
CD4+ CD11- cell subset, relative percentage ([1]; 200 mg/kg): 39.73
CD4+ CD45+ cell subset, relative percentage ([1]; 200 mg/kg): 33.01
CD4+ CD45- cell subset, relative percentage ([1]; 200 mg/kg): 6.22
CD4- CD8+ cell subset, relative percentage ([1]; 200 mg/kg): 8.57
CD4- CD8- cell subset, relative percentage ([1]; 200 mg/kg): 37.41
CD4- CD11+ cell subset, relative percentage ([1]; 200 mg/kg): 5.50
CD4- CD11- cell subset, relative percentage ([1]; 200 mg/kg): 54.30
CD4- CD45+ cell subset, relative percentage ([1]; 200 mg/kg): 40.63
CD4- CD45- cell subset, relative percentage ([1]; 200 mg/kg): 6.74
CD8+ CD45+ cell subset, relative percentage ([1]; 200 mg/kg): 20.68
CD8+ CD45- cell subset, relative percentage ([1]; 200 mg/kg): 4.13
CD8- CD45+ cell subset, relative percentage ([1]; 200 mg/kg): 49.80
CD8- CD45- cell subset, relative percentage ([1]; 200 mg/kg): 10.39
NK+ CD3+ cell subset, relative percentage ([1]; 200 mg/kg): 4.57
NK+ CD3- cell subset, relative percentage ([1]; 200 mg/kg): 8.70
NK- CD3+ cell subset, relative percentage ([1]; 200 mg/kg): 31.73
NK- CD3- cell subset, relative percentage ([1]; 200 mg/kg): 55.07
Non B cell subset, relative percentage ([1]; 200 mg/kg): 79.90
B cell subset, relative percentage ([1]; 300 mg/kg): 33.67
CD4+ CD8+ cell subset, relative percentage ([1]; 300 mg/kg): 2.37
CD4+ CD8- cell subset, relative percentage ([1]; 300 mg/kg): 31.07
CD4+ CD11+ cell subset, relative percentage ([1]; 300 mg/kg): 0.37
CD4+ CD11- cell subset, relative percentage ([1]; 300 mg/kg): 29.53
CD4+ CD45+ cell subset, relative percentage ([1]; 300 mg/kg): 30.67
CD4+ CD45- cell subset, relative percentage ([1]; 300 mg/kg): 2.77
CD4- CD8+ cell subset, relative percentage ([1]; 300 mg/kg): 16.67
CD4- CD8- cell subset, relative percentage ([1]; 300 mg/kg): 49.90
CD4- CD11+ cell subset, relative percentage ([1]; 300 mg/kg): 5.07
CD4- CD11- cell subset, relative percentage ([1]; 300 mg/kg): 65.03
CD4- CD45+ cell subset, relative percentage ([1]; 300 mg/kg): 62.10
CD4- CD45- cell subset, relative percentage ([1]; 300 mg/kg): 4.47
CD8+ CD45+ cell subset, relative percentage ([1]; 300 mg/kg): 18.10
CD8- CD45+ cell subset, relative percentage ([1]; 300 mg/kg): 73.03
CD8- CD45- cell subset, relative percentage ([1]; 300 mg/kg): 8.83
NK+ CD3+ cell subset, relative percentage ([1]; 300 mg/kg): 9.97
NK+ CD3- cell subset, relative percentage ([1]; 300 mg/kg): 11.87
NK- CD3+ cell subset, relative percentage ([1]; 300 mg/kg): 42.43
NK- CD3- cell subset, relative percentage ([1]; 300 mg/kg): 35.77
Non B cell subset, relative percentage ([1]; 300 mg/kg): 66.30
change of the relative percentage of B cell (in words) ([1]; 300 mg/kg): significant increase
toxicity in vivo (in words) [2]: No apparent toxicity
Activation of T Cells, ConA [3]: 0
Activation of T Cells, PHA [3]: 0
activation of T and B cells in spleen in vivo/ex vivo (in words) [4]: activate T and B cells
